{"source": "patent US20080119434A1", "about": "“Sir2a-based therapeutic and prophylactic methods” (The Trustees of Colubia University, priority 2001, published 2008)", "key": {"IMR-90 cells [1]": {"test_system": "IMR-90 cells", "method": "The cells were analyzed for apoptotic cells (subG1) according to DNA content (PI staining). […] Cells were either not treated (I) or treated with 100 μM H2O2 (II, III, IV) for 24 hr. […] Both mock infected cells and pBabe-Sir2α infected cells were either not treated (I and III) or treated with 200 μM H2O2 (II and IV). 24 hr later, the cells were photographed under a microscope.\n(§2) Both mock infected cells and pBabe-hSIRT1-363Y infected cells were either not treated (I and III) or treated with 50 μM H2O2 (II and IV) (E), or treated with different concentrations of adriamycin as indicated. 48 hr later, the cells were collected for analysis (D).\nIMR-90 cells were infected with either a pBabe retrovirus empty vector or a pBabe retrovirus containing Sir2α, and cultured for a week under pharmacological selection.\n(§3) IMR-90 cells were infected with either a pBabe retrovirus empty vector or a pBabe retrovirus containing hSIRT1-363Y, and cultured for a week under pharmacological selection.\nAfter one-week selection, the cells were either frozen for stock or immediately used for further analysis."}, "IMR-90 cells [2]": {"test_system": "IMR-90 cells", "experiment": "DNA damage-induced cell death by adriamycin in IMR-90 cells", "assay_type": "cell-based, human", "settings": "pBabe-hSIRT1-363Y infected vs mock infected IMR-90 cells, different concentrations of adriamycin, 48 hr", "method": "as §2, §3"}, "[3]": {"test_system": "acetylated p53 in H1299 cells", "experiment": "Acetylated p53 levels in H1299 cells cotransfected with p53 and p300 (western blot)", "assay_type": "cell-based, human", "settings": "H1299 cells cotransfected with p53 and p300, 500 nM TSA vs not treated", "protocol": "FIG. 2. TSA-insensitive deacetylation of p53 by mammalian Sir2α. (A) Colloidal blue staining of a SDS-PAGE gel containing protein Marker (lane 1), a control eluate from M2 loaded with untransfected cell extract (lane 2), and 100 ng of the highly purified Flag-tagged Sir2α recombinant protein (lane 3). (B) Deacetylation of p53 by Sir2α. […] NAD (50 μM) was also added in each reaction except lane 2. The proteins were analyzed by resolution on SDS-PAGE and autoradiography (upper) or Coomassie blue staining (lower). (C) Reduction of the steady-state levels of acetylated p53 by both mouse Sir2α and human SIRT1 expression. Western blot analysis of H1299 cell extracts from the cells cotransfected with p53 and p300 (lane 1), or in combination with Sir2α (lane 2), or in combination with hSIRT1 (lane 4), or Sir2α-355A (lane 3), or hSIRT1-363Y (lane 5), or hSIRT5 (lane 6), or PARP (lane 7) by acetylated p53-specific antibody (upper) or DO-1 for total p53 (lower). The highly conserved histidine residue at the core domain was replaced by alanine for mouse Sir2α (a.a. 355) Sir2α-355A), or replaced by tyrosine for human SIRT1 (a.a. 363) (hSIRT1-363Y). […]\n(§1) After treatment, the cells were harvested for western blot analysis. […] The cell extracts were resolved by either 8% or 4-20% SDS-PAGE gels (Novex) and analyzed by western blot with α-p53(Ac)-C and α-p53(DO-1)."}, "Sir2α": {"molecular_target": "T1, Sir2α (Mus musculus, UniProt Q923E4)", "T1 construct": "To construct Sir2α expression constructs, the full-length cDNA was subcloned from pET28a-Sir2α; Flag (N); made in house", "T1 sequence (Q923E4 1-737)": "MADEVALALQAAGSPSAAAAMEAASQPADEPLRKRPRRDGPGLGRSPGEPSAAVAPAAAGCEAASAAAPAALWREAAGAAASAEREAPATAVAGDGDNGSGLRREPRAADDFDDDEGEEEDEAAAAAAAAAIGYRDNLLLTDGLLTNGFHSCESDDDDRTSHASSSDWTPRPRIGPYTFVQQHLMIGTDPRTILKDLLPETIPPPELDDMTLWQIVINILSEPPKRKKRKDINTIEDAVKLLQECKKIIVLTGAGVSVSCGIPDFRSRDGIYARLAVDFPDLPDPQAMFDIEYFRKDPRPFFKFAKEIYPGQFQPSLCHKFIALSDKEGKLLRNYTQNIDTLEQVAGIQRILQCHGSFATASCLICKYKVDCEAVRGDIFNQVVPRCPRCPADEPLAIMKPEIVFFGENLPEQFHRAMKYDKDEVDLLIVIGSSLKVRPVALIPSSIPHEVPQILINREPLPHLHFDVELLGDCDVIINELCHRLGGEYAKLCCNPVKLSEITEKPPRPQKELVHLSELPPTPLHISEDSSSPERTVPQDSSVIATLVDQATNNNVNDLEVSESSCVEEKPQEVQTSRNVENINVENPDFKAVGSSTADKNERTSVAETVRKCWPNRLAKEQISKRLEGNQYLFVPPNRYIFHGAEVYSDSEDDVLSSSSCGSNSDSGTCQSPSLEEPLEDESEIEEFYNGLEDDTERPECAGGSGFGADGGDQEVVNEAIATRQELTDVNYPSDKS", "experiment": "In vitro p53 deacetylation assay with purified Flag-tagged Sir2α", "assay_type": "biochemical", "settings": "10 ng Sir2α, 50 μM NAD, 60 min at 30° C.; TSA 500 nM, nicotinamide 5 mM, 3-AB 3 mM", "protocol": "FIG. 2. TSA-insensitive deacetylation of p53 by mammalian Sir2α. (A) Colloidal blue staining of a SDS-PAGE gel containing protein Marker (lane 1), a control eluate from M2 loaded with untransfected cell extract (lane 2), and 100 ng of the highly purified Flag-tagged Sir2α recombinant protein (lane 3). (B) Deacetylation of p53 by Sir2α. […] NAD (50 μM) was also added in each reaction except lane 2. The proteins were analyzed by resolution on SDS-PAGE and autoradiography (upper) or Coomassie blue staining (lower). (C) Reduction of the steady-state levels of acetylated p53 by both mouse Sir2α and human SIRT1 expression. Western blot analysis of H1299 cell extracts from the cells cotransfected with p53 and p300 (lane 1), or in combination with Sir2α (lane 2), or in combination with hSIRT1 (lane 4), or Sir2α-355A (lane 3), or hSIRT1-363Y (lane 5), or hSIRT5 (lane 6), or PARP (lane 7) by acetylated p53-specific antibody (upper) or DO-1 for total p53 (lower). The highly conserved histidine residue at the core domain was replaced by alanine for mouse Sir2α (a.a. 355) Sir2α-355A), or replaced by tyrosine for human SIRT1 (a.a. 363) (hSIRT1-363Y). […] The acetylated p53 levels in the cells cotransfected with p53 and p300 (lanes 1, 3), or cotransfected with p53, p300 and Sir2α (lanes 2, 4).\nFIG. 3. Abrogation of mammalian Sir2α mediated deacetylation of p53 by nicotinamide. (A) Sir2α-mediated deacetylation of p53 is inhibited by nicotinamide. […] The proteins were analyzed by resolution on SDS-PAGE and autoradiography (upper) or Coomassie blue staining (lower). […]\nThe Flag-tagged Sir2α cells were established and expanded in DMEM medium, and cell extracts were prepared essentially as previously described (Luo et al., 2000; Gu et al., 1999). […] The eluted proteins were resolved by a SDS-PAGE gel and analyzed by colloidal blue staining (Novex). […] The reactions were resolved on SDS-PAGE and analyzed by Coomassie blue staining and autoradiography."}, "[4]": {"test_system": "acetylated p53 in H460 cells", "experiment": "Acetylation levels of endogenous p53 in H460 cells during DNA damage response (western blot)", "assay_type": "cell-based, human", "settings": "for acetylation level of p53, agent added to etoposide and TSA: etoposide + TSA + agent vs etoposide + TSA, nicotinamide 5 mM", "protocol": "FIG. 3. […] 2.5 μg of ^14C-labeled acetylated p53 (lane 1) was incubated with 10 ng of purified Sir2α and 50 μM NAD alone (lane 2), or in the presence of either 5 mM of nicotinamide (lane 3) or 3 mM of 3-AB (3-aminobenzamide) (lane 4) for 60 min at 30° C. The proteins were analyzed by resolution on SDS-PAGE and autoradiography (upper) or Coomassie blue staining (lower). […] The cell extracts from untreated cells (lane 1), or treated with ALLN (50 μM) were also included (lane 6).\nAfter treatment, the cells were harvested for western blot analysis. The rabbit polyclonal antibody specific for p300-mediated acetylated p53-[α-p53(Ac)-C] was raised and purified against the acetylated human p53 C-terminal peptide [p53 (Ac)-C: H-S55GQSTSRH55LMF-OH (5=acetylated Lysine)] as described before (Luo et al., 2000). In the case of cotransfection assays testing for p53 acetylation levels, H1299 cells were transfected with 5 μg of CMV-p53 plasmid DNA, 5 μg of CMV-p300 plasmid DNA, and 10 μg of pcDNA3—Sir2α plasmid DNA as indicated. […] The cell extracts were resolved by either 8% or 4-20% SDS-PAGE gels (Novex) and analyzed by western blot with α-p53(Ac)-C and α-p53(DO-1)."}, "[5]": {"test_system": "Sir2α-mediated deacetylation of endogenous p53 in MEF p53(+/+) cells", "experiment": "Sir2α-mediated deacetylation of endogenous p53 in pBabe-Sir2α infected MEF p53(+/+) cells (western blot)", "assay_type": "cell-based, mouse", "settings": "etoposide and TSA in combination with nicotinamide, 6 hr", "protocol": "FIG. 3. Abrogation of mammalian Sir2α mediated deacetylation of p53 by nicotinamide. (A) Sir2α-mediated deacetylation of p53 is inhibited by nicotinamide. 2.5 μg of ^14C-labeled acetylated p53 (lane 1) was incubated with 10 ng of purified Sir2α and 50 μM NAD alone (lane 2), or in the presence of either 5 mM of nicotinamide (lane 3) or 3 mM of 3-AB (3-aminobenzamide) (lane 4) for 60 min at 30° C. The proteins were analyzed by resolution on SDS-PAGE and autoradiography (upper) or Coomassie blue staining (lower). (B) Enhancement of endogenous p53 acetylation levels by nicotinamide. […] (C) The Sir2α-mediated deacetylation of endogenous p53 was abrogated in the presence of nicotinamide. […] The cell extracts from untreated cells (lane 1), or treated with ALLN (50 μM) were also included (lane 6).\nFurthermore, we examined the effect of Sir2α expression on endogenous levels of acetylated p53. […] We first examined the protein levels of p53 activation in response to DNA damage in these cells by western blot analysis.\nas §1"}}, "note": "Where two headings read alike, the source gives them in different places. Non-standard residues stand in square brackets, D forms with d. Residues, ends and D or L forms follow the SMILES beside them. Nle = CCCC[C@H](N)C(=O)O", "data": [{"smiles": "OO", "note": "[H2O2, hydrogen peroxide]", "values": [{"measurement": "cells being killed", "setting": "IMR-90 cells [1]; mock (pBabe-vector) infected IMR-90 cells, 200 μM H2O2, 24 hr", "result": "more than 80%"}, {"measurement": "susceptibility to H2O2-induced cell death", "setting": "IMR-90 cells [1]; mock infected IMR-90 cells, 50 μM H2O2", "result": "relatively resistant"}, {"measurement": "cells surviving", "setting": "IMR-90 cells [1]; pBabe-Sir2α infected IMR-90 cells, 200 μM H2O2, 24 hr", "result": "about 70%"}, {"measurement": "cells surviving", "setting": "IMR-90 cells [1]; pBabe-hSIRT1-363Y infected IMR-90 cells, 50 μM H2O2", "result": "less than 30%"}]}, {"smiles": "COc1cccc2c1C(=O)c1c(O)c3c(c(O)c1C2=O)C[C@@](O)(C(=O)CO)C[C@@H]3O[C@H]1C[C@H](N)[C@H](O)[C@H](C)O1", "note": "[adriamycin]", "values": [{"measurement": "sensitivity to DNA damage-induced cell death", "setting": "IMR-90 cells [2]", "result": "much more sensitive"}]}, {"smiles": "CC(/C=C/C(=O)NO)=C\\[C@@H](C)C(=O)c1ccc(N(C)C)cc1", "note": "[TSA, Trichostatin A]", "values": [{"measurement": "steady state level of acetylated p53", "setting": "[3]", "result": "elevated"}, {"measurement": "effect on Sir2α-mediated deacetylation of 14C-labeled acetylated p53", "setting": "Sir2α", "result": "no apparent effect"}, {"measurement": "acetylation level of p53 during DNA damage response, agent added to etoposide", "setting": "[4]; 6 hr, etoposide plus TSA (0.5 μM) vs etoposide alone", "result": "mild enhancement"}]}, {"smiles": "NC(=O)c1cccnc1", "note": "[nicotinamide]", "values": [{"measurement": "effect on Sir2α-mediated deacetylation of endogenous p53", "setting": "[5]", "result": "completely abrogated"}, {"measurement": "effect on Sir2α-mediated deacetylation of 14C-labeled acetylated p53", "setting": "Sir2α", "result": "completely inhibited"}, {"measurement": "acetylation level of p53, agent added to etoposide and TSA", "setting": "[4]; 6 hr", "result": "super induction"}, {"measurement": "cellular levels of acetylated p53 induced by DNA damage", "setting": "[4]; etoposide plus nicotinamide vs etoposide alone", "result": "enhanced"}]}, {"smiles": "CCCC[C@@H](C=O)NC(=O)[C@H](CC(C)C)NC(=O)[C@H](CC(C)C)NC(C)=O", "note": "[ALLN] (Ac-Leu-Leu-[Nle]-aldehyde)", "values": [{"measurement": "acetylation of p53, single agent vs untreated cells", "setting": "[4]; 6 hr, etoposide 20 μM, ALLN 50 μM", "result": "no significant p53 acetylation was detected"}]}, {"smiles": "NC(=O)c1cccc(N)c1", "note": "[3-AB, 3-aminobenzamide]", "values": [{"measurement": "effect on Sir2α-mediated deacetylation of 14C-labeled acetylated p53", "setting": "Sir2α", "result": "no significant effect"}, {"measurement": "acetylation level of p53, agent added to etoposide and TSA", "setting": "[4]; 6 hr", "result": "no effect"}]}]}
